Measurements from article PMC8767159, “Multiparameter Optimization of Trypanocidal Cruzain Inhibitors With In Vivo Activity and Favorable Pharmacokinetics” (Frontiers in Pharmacology, 2022).
Read-outs that look alike come from different tables or passages of the source.

Experiments:
[1] = In vitro metabolic stability in mouse liver microsomes; format: in vitro ADME; conditions: mouse, liver microsomes
How it was run: (§1)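 Compounds incubated at 37°C with mouse or human liver microsomes (0.25 mg/ml) in potassium phosphate buffer with NADPH; samples quenched in ACN/MeOH at 0, 5, 10, 15, 20 and 30 min. Parent remaining by LC-MS/MS relative to 0 min; T½ = ln(2)/k, CLint = k*1000/0.25 (μL/min/mg).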

[2] = Cytotoxicity MTS assay in HFF-1 fibroblasts; format: cell-based; conditions: human HFF-1 fibroblasts
Description: The synthesized compounds were evaluated for their cytotoxicity against HFF-1 cells using the MTS assay (Promega, Madison, WI) ([Barltrop et al., 1991]) as previously described ([Ferreira et al., 2019]). HFF-1 fibroblasts were plated at 2 × 10^3/well in 96-well culture plates in RPMI 1640 without phenol red enriched with 10% FCS and incubated overnight at 37°C and 5% CO2. Next, 7 concentrations (0.1–100 µM) of the compounds were added in 3-fold serial dilutions, each concentration in triplicate, and the plates were incubated for 72 h at 37°C and 5% CO2. Next, 20 µl of MTS was added to each well, and the plates were incubated for an additional 4 h at 37°C and 5% CO2. The absorbance was measured at 490 nm using a spectrophotometer, and the data were transferred to SigmaPlot 10.0 (Systat Software Inc., Erkrath, Germany) to determine the IC50 values. Doxorubicin (Sigma–Aldrich) was used as a positive control, and untreated wells (100% growth) were used as negative controls in all plates. All compounds were tested in two independent assays.

[3] = In vitro metabolic stability in human liver microsomes; format: in vitro ADME; conditions: for CLint scaled at 5 µM: human, liver microsomes
How it was run: as §1

[4] = In vivo pharmacokinetics in male CD1 mice; parameters: species or system mouse; conditions: for bioavailability / C0 / AUC / half-life / Vd / Cmax / Tmax: plasma; for bioavailability: oral bioavailability; for clearance: plasma clearance, read-out: CLp (L/h/kg) IV (converted)
Description: The in vivo pharmacokinetic profiles of the compounds were determined using male CD1 mice weighing […] ([Davies and Morris, 1993]; [Liu and Jia, 2007]). The compounds were administered in a single dose orally (0.5 mg/kg) and intravenously (0.5 mg/kg). Stock solutions of the compounds in DMSO were diluted in Tween 80, PEG-400, and D5W (5% dextrose in water) at a ratio of 2:5:20:73 (v/v). The injection volume was 10 ml/kg. The remaining plasma concentration was monitored over time by LC-MS/MS by collecting blood samples (40 μl) at 10, 25, and 50 min and 1, 3, 6, 9, 12, and 24 h after administration of the compound.
For the biotransformation experiments and analysis of metabolites in microsomes, an Ultra-High-Pressure Liquid Chromatography instrument (UHPLC, Thermo Accela, Waltham, MA) ([Spaggiari et al., 2014]) connected to an automatic sample injector and a 1250 series pump was used. The UHPLC system was connected to a Thermo Fisher (Waltham, MA) LTQ Orbitrap mass spectrometer. For all other analyses, an AB Sciex Triple Quad 5500 coupled to a UHPLC equipped with a UV 1290 diode detector (Agilent Technologies, Santa Clara, CA) and a CTC PAL self-collecting system (LEAP Technologies, Carrboro, NC) was used. Q1 MS positive ion mode (300–500 Da) was used to detect the ions of the parent compounds. The UV detector was operated in spectral mode (250–280 nm). A Hypersil Gold C18 (2.1 mm × 100 mm, 1.9 µm, Thermo Fisher) HPLC column was used. The mobile phases were solvent A (0.1% formic acid in water) and solvent B (0.1% formic acid in ACN). The flow was adjusted to 0.55 ml/min, and the injection volume was adjusted to […]. The gradient started with 1% solvent B for 0.4 min, reached 40% (solvent B) in 2.3 min and 95% (solvent B) in 0.67 min, was maintained for 0.5 min, and returned to the initial condition of 1%. This condition was maintained for 1 min before injection of the next sample. The peak area ratio (peak area of the test compounds/peak area of the control compounds) was converted to the percentage of remaining compound, with the 0 min time point ratio set to 100%. T½ and CLint were calculated from the percentage of remaining compound versus the incubation time. From the resulting function, the slope (k) was determined. The equations T1/2 (min) = ln(2)/k and CLint in vitro (μL/min/mg) = k*1000/0.25 were used to determine T½ and CLint.

[5] = Table S5, CLint/fu, read-out: CLint_u (L/h/kg) Mouse (converted)
[6] = Table S5, read-out: CLint (L/h/kg) Mouse (converted)
[7] = Table S5, CLint/fu, read-out: CLint_u (L/h/kg) Human (converted)
[8] = Table S5, read-out: CLint (L/h/kg) Human (converted)
[9] = Table 6, plasma clearance corrected for the fraction unbound, IV
[10] = mouse, 0.5 mg/kg, Table 6, male CD1 mice
[11] = mouse, Table 6, IV 0.5 mg/kg, male CD1 mice
[12] = mouse, Table 6, IV 0.5 mg/kg, male CD1 mice, read-out: AUC (ng*h/ml) IV
[13] = mouse, Table 6, IV 0.5 mg/kg, male CD1 mice, read-out: T1/2 (h) IV (converted)
[14] = mouse, Table 6, IV 0.5 mg/kg, male CD1 mice, read-out: V SS (L/kg) IV
[15] = mouse, Table 6, PO 0.5 mg/kg, male CD1 mice
[16] = mouse, Table 6, PO 0.5 mg/kg, male CD1 mice, read-out: AUC (ng*h/ml) PO
[17] = mouse, Table 6, PO 0.5 mg/kg, male CD1 mice, read-out: T1/2 (h) PO (converted)
[18] = Table 5, read-out: CLint (L/h/kg) mouse (converted)
[19] = Table 5, CLint/fu, read-out: CLint_u (L/h/kg) human (converted)
[20] = Table 5, read-out: CLint (L/h/kg) human (converted)
[21] = Table 5, CLint/fu, read-out: CLint_u (L/h/kg) mouse (converted)
[22] = Table S6, plasma clearance corrected for the fraction unbound
[23] = male, CD1, mouse, 0.5 mg/kg, Table S6, IV, mice
[24] = male, CD1, mouse, 0.5 mg/kg, Table S6, IV, mice, read-out: AUC (ng*h/mL) IV
[25] = male, CD1, mouse, 0.5 mg/kg, Table S6, IV, mice, read-out: T1/2(h) IV (converted)
[26] = male, CD1, mouse, 0.5 mg/kg, Table S6, IV, mice, read-out: VSS (L/kg) IV
[27] = male, CD1, mouse, 0.5 mg/kg, Table S6, mice
[28] = male, CD1, mouse, 0.5 mg/kg, Table S6, PO, mice

Row | SMILES | CLint scaled at 5 µM [1, 5] [L/h/kg] | CLint scaled at 5 µM [1, 6] [L/h/kg] | IC50 at 72 h [2] [µM] | CLint scaled at 5 µM [3, 7] [L/h/kg] | CLint scaled at 5 µM [3, 8] [L/h/kg] | C0 [4, 11] [ng/mL] | AUC [4, 12] [ng·h/mL] | half-life [4, 13] [h] | Vd [4, 14] [L/kg] | Tmax [4, 15] [min] | clearance [4, 11] [L/h/kg] | CLint scaled at 5 µM [1, 18] [L/h/kg] | CLint scaled at 5 µM [3, 19] [L/h/kg] | CLint scaled at 5 µM [3, 20] [L/h/kg] | further results
1 | O=C(COc1ccccc1)NCCc1nc2ccccc2n1CCCOc1ccccc1 [Compound 24] | 1850 | 501 | > 30 | 524 | 142 |  |  |  |  |  |  |  |  |  | 
2 | O=C(COc1ccc2ccccc2c1Br)NCCc1nc2ccccc2[nH]1 [Compound 34] |  |  | > 30 |  |  | 255 | 116 | 0.3 | 1.9 | 18 | 7.6 | 607 | 540 | 49.9 | CLpu (L/h/kg) [4, 9]: 2,874.7 L/h/kg; bioavailability [4, 10]: 5.6%; Cmax [4, 15]: 7.6 ng/mL; AUC [4, 16]: 6.5 ng·h/mL; half-life [4, 17]: 0.6 h
3 | O=C(COc1ccc2ccccc2c1)NCCc1nc2ccccc2[nH]1 [Compound 35] |  |  | > 100 |  |  | 228 | 86 | 0.2 | 2 | 18 | 5.8 | 565 | 43.9 | 21.1 | CLpu [4, 9]: 334.6 L/h/kg; bioavailability [4, 10]: 2%; Cmax [4, 15]: 3.7 ng/mL; AUC [4, 16]: 1.7 ng·h/mL; half-life [4, 17]: 0.2 h; CLint scaled at 5 µM [1, 21]: 1170 L/h/kg
4 | Cc1ccccc1OCC(=O)NCCc1nc2ccccc2o1 [Compound 37] |  |  | > 100 |  |  | 169 | 53 | 0.2 | 2.4 | 18 | 9.5 | 745 | 26.9 | 22.9 | CLpu [4, 9]: 187.1 L/h/kg; Cmax [4, 15]: 14.6 ng/mL; CLint scaled at 5 µM [1, 21]: 874 L/h/kg
5 | O=C(COc1ccc2cc(O)ccc2c1)NCCc1nc2ccccc2[nH]1 [Compound 10] | 32.3 | 26.4 | > 100 | 8.15 | 6.66 |  |  |  |  |  |  |  |  |  | CLpu [4, 22]: 18.84 L/h/kg; clearance [4, 23]: 6.52 L/h/kg; C0 [4, 23]: 660 ng/mL; AUC [4, 24]: 156 ng·h/mL; half-life [4, 25]: 0.14 h; Vd [4, 26]: 1.21 L/kg; bioavailability [4, 27]: 0%
6 | O=C(COc1ccccc1Br)NCCc1nc2ccccc2[nH]1 [Compound 18] |  |  | > 100 |  |  | 283 | 84 | 0.2 | 1.8 | 18 | 3.2 | 191 | 16 | 9.2 | CLpu [4, 9]: 103.7 L/h/kg; bioavailability [4, 10]: 1.2%; AUC [4, 16]: 1 ng·h/mL; CLint scaled at 5 µM [1, 21]: 334 L/h/kg
7 | CC(=O)Nc1cccc(OCC(=O)NCCc2nc3ccccc3[nH]2)c1 [Compound 3] | 10.6 | 10.6 | > 100 | 6.9 | 6.9 |  |  |  |  |  |  |  |  |  | CLpu [4, 22]: 14.55 L/h/kg; clearance [4, 23]: 2.31 L/h/kg; C0 [4, 23]: 12000 ng/mL; AUC [4, 24]: 916 ng·h/mL; half-life [4, 25]: 0.35 h; Vd [4, 26]: 0.45 L/kg; Cmax [4, 28]: 9 ng/mL; Tmax [4, 28]: 26.4 min; AUC ([4]; male, CD1, mouse, 0.5 mg/kg, Table S6, PO, mice, read-out: AUC (ng*h/mL) PO): 9.91 ng·h/mL; bioavailability [4, 27]: 1%; CLint_u (L/h/kg) Human ([3]; Table S5, CLint/fu): 6.90 L/h/kg
8 | O=C(COc1ccc(NC(=O)CCCO)cc1)NCCc1nc2ccccc2[nH]1 [Compound 5] | 4.51 | 4.43 | > 100 | 1.53 | 1.5 |  |  |  |  |  |  |  |  |  | 
9 | C=CCCn1c(CCNC(=O)COc2ccccc2)nc2ccccc21 [Compound 27] | 756 | 650 | > 100 | 70.2 | 60.4 |  |  |  |  |  |  |  |  |  | 
10 | O=C(COc1ccccc1)NCCc1nc2ccccc2n1CCOc1ccccc1 [Compound 20] | 1200 | 489 | > 30 | 301 | 123 |  |  |  |  |  |  |  |  |  | 
11 | O=C(COc1ccccc1)NCCc1nc2ccccc2n1Cc1ccccc1 [Compound 26] | 1010 | 620 | > 100 | 196 | 120 |  |  |  |  |  |  |  |  |  | 
